Laboratory results taken from patent publication US8779002B2, “Methods for treating a variety of diseases and conditions, and compounds useful therefor” (Salk Institute for Biological Studies, priority 2007, dated 2014).
Like-named read-outs stand apart in the source and are kept apart here.

Columns and labels:
HT22 cells [1] = test: HT22 oxidative glutamate toxicity (oxytosis) assay; format: cell-based, mouse; conditions: for EC50: Mus musculus, HT-22
Procedure: FIG. 1D illustrates the results of an oxidative stress assay. HT22 cells were treated with 5 mM glutamate and different concentrations of two versions of curcumin derivatives. Cell viability was measured 24 hr later by the MTT assay (J. B. Davis and P. Maher, Protein kinase C activation inhibits glutamate-induced cytotoxicity in a neuronal cell line. Brain Res. 652 (1994) 169-173). Legend for FIG. 1A, FIG. 1B and FIG. 1D: x-x, Cmpd CNB-001, o-o, Cmpd J147.
Similar toxicity assays as described above are also conducted with invention compounds using HT22 cells in an assay for oxidative stress. After exposure with 1 mM, 2 mM, 2.5 mM, or 5 mM glutamate, cell viability is determined with the MTT assay.
HT22 hippocampal neurons are treated with 5 mM glutamate and increasing concentrations of invention compounds. Cell viability is measured 24 hr later by the MTT assay (Davis and Maher, Brain Res. 652:169-173 (1994)).

MC-65 cells = test: MC65 intracellular amyloid toxicity assay; format: cell-based; conditions: for EC50: MC65; for Protection against intracellular protein aggregation and toxicity: MC-65 cells, tetracycline removal, MTT 5 days later
Procedure: FIG. 4A illustrates the viability of MC-65 cells upon exposure to the indicated concentrations of compounds, and the degree to which synthesis of the C-terminal fragment of APP is induced by the removal of tetracycline. Cell death was determined 5 days later by the MTT assay and confirmed visually. The data are plotted as percent viable, relative to controls of drug plus un-induced cells.

Amyloid = test: Extracellular amyloid toxicity (cell culture); format: cell-based
HT22 cells [2] = test: Chemical ischemia (iodoacetic acid) in HT22 mouse hippocampal cells; format: cell-based; parameters: key to In Vitro Ischemia, Mouse hippocampal cells: + = positive result or enzyme activation; conditions: for Cell death caused by treatment of HT22 cells with 20 μM IAA: 20 μM iodoacetic acid for 2 hr, MTT after 24 hr
Procedure: FIG. 2 illustrates the ability of invention compounds CNB-001 and J147 to protect nerve cells from chemical ischemia. HT22 cells were treated with 20 μM iodoacetic acid for 2 hr alone or in the presence of varying concentrations of CNB-001 or J147. % survival was confirmed by microscopy and measured after 24 hr by the MTT assay.
Most cell culture models of ischemia utilize primary cortical cultures that are exposed to some form of oxygen and glucose deprivation. While these assays may come closer to mimicking the in vivo conditions than assays employing neuronal cell lines, they have a number of problems that make them difficult to use for the routine screening of potential neuroprotective compounds. The most serious problem is that the condition needed to kill a fixed percentage of cells are highly variable from experiment to experiment, making it very difficult to get accurate values for neuroprotective activity. In order to circumvent this and other problems, a mouse nerve cell line was used in combination with chemical ischemia as a screen for potential neuroprotective drugs for ischemia. To induce chemical ischemia, iodoacetic acid (IAA), a well known, irreversible inhibitor of the glycolytic enzyme glyceraldehyde 3-phosphate dehydrogenase (G3PDH) (see B. S. Winkler et al., Modulation of the Pasteur effect in retinal cells: implications for understanding compensatory metabolic mechanisms, in Exp Eye Res 76 (2003) 715-723) was used in combination with the HT22 mouse hippocampal cell line. IAA has been used in a number of other studies to induce ischemia in nerve cells. The changes following IAA treatment of neural cells are very similar to changes which have been seen in animal models of CNS trauma and ischemia. These include alterations in membrane potential, breakdown of phospholipids, loss of ATP, and an increase in reactive oxygen species. A 2 hr treatment of the HT22 cells with 20 μM IAA induces over 90% cell death 20 hr later. […]

Memory = test: Memory, animal models (Table 2); parameters: key: + = positive result or enzyme activation; conditions: in vivo
CREB = CREB phosphorylation; format: cell-based, mouse; parameters: key: + = positive result or enzyme activation
Source text: CREB activation has been linked to cell survival and accordingly, is considered to be a validated therapeutic target (Vaishnov, et al, Biochem. Biophys. Res. Commun. 307:855-860 (2003)). Similar to the concept of programmed cell death which involves transcription factors pivotal in switching on the nerve cell death program is the transcriptional control of programmed cell life. For example, recent studies of the activation of the CREB transcription factor in stroke models have shown that CREB is phosphorylated (and presumably activated) in neurons that survive this insult.
CREB phosphorylation in response to oxidative stress is evaluated in the presence of invention compounds. Glutamate is added to HT22 cells in the presence or absence of Cmpd CNB-001 (at 1 μM). The ratio of phosphorylated CREB to total CREB is then measured as a function of time. Furthermore, all of the HT22 cells die in the absence of Cmpd CNB-001, and over 90% live in the presence of Cmpd CNB-001.

[3] = Toxicology: animal weight or overall health; format: in vivo
[4] = Cell Culture (Table 2), read-out: Oxidative Glutamate Toxicity
[5] = Cell Culture, read-out: Amyloid Toxicity, Intracellular

Row | Compound | EC50 (HT22 cells [1]; [4]) | EC50 (HT22 cells [1]; HT22 cells, following 5 mM glutamate exposure, MTT, read-out: EC50) | EC50 (HT22 cells [1]; Oxidative glutamate toxicity (oxytosis), read-out: HT-22 EC50) | EC50 (MC-65 cells; [5]) | EC50 (MC-65 cells; Intracellular amyloid toxicity, read-out: MC65 EC50) | Protection against intracellular protein aggregation and toxicity (MC-65 cells) | EC50 (Amyloid) | Cell death caused by treatment of HT22 cells with 20 μM IAA (HT22 cells [2]) | Memory (Memory) | Memory, Animal (Memory) | CREB (CREB) | Toxicology-no apparent effect on animal weight or overall health ([3]; gavage 10 d (mice)) | HT22 cells that live (HT22 cells [1]; glutamate, in the presence of Cmpd CNB-001 at 1 μM) | In Vitro Ischemia, Mouse hippocampal cells (HT22 cells [2]) | Toxicology-no apparent effect on animal weight or overall health ([3]; several mo. (mice))
1 | COc1cccc(/C=N/N(C(=O)C(F)(F)F)c2ccc(C)cc2C)c1 [Compound J147] | 5 nM | ~5 nM | 6 nM | 3 nM | 10 nM | neuroprotective | 10 nM | can be prevented | + | + | + | 300 mg/kg | – | – | –
2 | COc1cc(/C=C/c2cc(/C=C/c3ccc(O)c(OC)c3)n(-c3ccccc3)n2)ccc1O [CNB-001] | 500 nM | – | – | 200 nM | – | neuroprotective | 500 nM | can be prevented | + | + | + | – | over 90% | + | 500 ppm food
